System: E. coli, E. faecalis, K. pneumoniae, P. aeruginosa, C. albicans, S. aureus, and S. epidermidis
Assay: zone of inhibition (ZOI), control articles in each plate
Format: cell-based
Conditions: 10 μg disk, values not shown
Excerpt: Samples were submitted in duplicate for each sterilization process. […] The diameter of each zone is reported in millimeters. […] The control results are not shown.

Q: gentamicin was tested. Which “inhibition by positive control” value did it give?
A: The value was “expected inhibition”.
